Experimental data as given in the supplement of paper PMC13380429.

Columns and labels:
Caco-2 [1] = assay: relative viability EC50 (midpoint between 100% and the lowest measured viability); higher = less toxic; details: 72 h
Calu-3 [2] = assay: as above; details: 72 h
U2OS [3] = assay: as above; details: 72 h
Vero E6 [4] = assay: as above; details: 72 h
[5] = test system: A549-ACE2 infected with SARS-CoV-2; assay: morphology score (similarity to uninfected cells); higher = more like uninfected cells; details: 24 h
A549-ACE2 [6] = assay: drug-induced phospholipidosis relative to tamoxifen; higher = more phospholipidosis
[7] = test system: A549-ACE2 infected with SARS-CoV-2; assay: SARS-CoV-2 infection rate relative to DMSO; higher = more infection; details: 24 h
HepG2 [8] = assay: cell viability relative to DMSO; higher = less toxic; details: 72 h
Caco-2 [9] = assay: as above; details: 72 h
Calu-3 [10] = assay: as above; details: 72 h
U2OS [11] = assay: as above; details: 72 h
Vero E6 [12] = assay: as above; details: 72 h
A549-ACE2 [13] = assay: phospholipidosis EC50; higher = less potent phospholipidosis inducer
[14] = test system: A549-ACE2 infected with SARS-CoV-2; assay: cell count relative to DMSO; higher = less toxic; details: 24 h
HepG2 [15] = assay: drug sensitivity score (DSS) for viability; higher = more toxic; extreme values may be limits of the assay; details: 72 h
Caco-2 [16] = assay: as above; details: 72 h
Calu-3 [17] = assay: as above; details: 72 h
U2OS [18] = assay: as above; details: 72 h
Vero E6 [19] = assay: as above; details: 72 h
HepG2 [20] = assay: relative viability EC50 (midpoint between 100% and the lowest measured viability); higher = less toxic; details: 72 h

OCc1cc(C(O)CNCCCCCCOCCCCc2ccccc2)ccc1O (stereo not drawn) [salmeterol]
Details	drug sensitivity score	relative viability EC50
Caco-2 [1]	–	> 10000 nM
Caco-2 [16]	0.1	–
Calu-3 [2]	–	> 10 µM
Calu-3 [17]	0	–
HepG2 [15]	1	–
U2OS [3]	–	> 10000 nM
U2OS [18]	0	–
Vero E6 [4]	–	> 10000 nM
Vero E6 [19]	0	–

Details	SARS-CoV-2 infection rate [%]	cell count [%]	cell viability [%]	morphology score	phospholipidosis EC50 [µM]
A549-ACE2 [13], 24 h	–	–	–	–	5.09
A549-ACE2 [13], 48 h	–	–	–	–	7.38
A549-ACE2 [13], 72 h	–	–	–	–	8.86
Caco-2 [9], 1 nM	–	–	97.4	–	–
Caco-2 [9], 10 nM	–	–	96.6	–	–
Caco-2 [9], 100 nM	–	–	95.1	–	–
Caco-2 [9], 1000 nM	–	–	92.7	–	–
Caco-2 [9], 10000 nM	–	–	86.6	–	–
Calu-3 [10], 1 nM	–	–	112	–	–
Calu-3 [10], 10 nM	–	–	97.4	–	–
Calu-3 [10], 100 nM	–	–	100	–	–
Calu-3 [10], 1000 nM	–	–	99	–	–
Calu-3 [10], 10000 nM	–	–	98.9	–	–
HepG2 [8], 1 nM	–	–	107	–	–
HepG2 [8], 10 nM	–	–	107	–	–
HepG2 [8], 100 nM	–	–	94	–	–
HepG2 [8], 1000 nM	–	–	105	–	–
HepG2 [8], 10000 nM	–	–	70.8	–	–
U2OS [11], 1 nM	–	–	103	–	–
U2OS [11], 10 nM	–	–	97.7	–	–
U2OS [11], 100 nM	–	–	99.9	–	–
U2OS [11], 1000 nM	–	–	99.3	–	–
U2OS [11], 10000 nM	–	–	95.2	–	–
Vero E6 [12], 1 nM	–	–	101	–	–
Vero E6 [12], 10 nM	–	–	106	–	–
Vero E6 [12], 100 nM	–	–	101	–	–
Vero E6 [12], 1000 nM	–	–	107	–	–
Vero E6 [12], 10000 nM	–	–	97.5	–	–
[5], 0.3 µM	–	–	–	-0.02	–
[5], 3 µM	–	–	–	0.15	–
[5], 10 µM	–	–	–	0.89	–
[5], 30 µM	–	–	–	0.58	–
[7], 0.3 µM	107	–	–	–	–
[7], 3 µM	91	–	–	–	–
[7], 10 µM	19	–	–	–	–
[7], 30 µM	17	–	–	–	–
[14], 0.3 µM	–	101	–	–	–
[14], 3 µM	–	108	–	–	–
[14], 10 µM	–	121	–	–	–
[14], 30 µM	–	102	–	–	–

drug-induced phospholipidosis [%], A549-ACE2 [6]
Details	0.3 µM	0.833333 µM	3.33333 µM	6.66667 µM	10 µM	30 µM
24 h	-0.12	-0.14	9.06	65.1	85.7	80.3
48 h	2.35	2.68	8.06	52.9	83.5	117
72 h	3.27	1.57	6.45	37.9	80.7	130

CC(=O)OC[C@H]1O[C@@H]([S-])[C@H](OC(C)=O)[C@@H](OC(C)=O)[C@@H]1OC(C)=O.CCP(CC)CC.[Au+] [auranofin]
Details	drug sensitivity score	relative viability EC50
Caco-2 [1]	–	1150 nM
Caco-2 [16]	11	–
Calu-3 [2]	–	3.86 µM
Calu-3 [17]	4.5	–
HepG2 [15]	9.7	–
HepG2 [20]	–	1460 nM
U2OS [3]	–	382 nM
U2OS [18]	16.9	–
Vero E6 [4]	–	2190 nM
Vero E6 [19]	7.5	–

Details	SARS-CoV-2 infection rate, [7] [%]	cell count, [14] [%]	cell viability, Caco-2 [9] [%]	cell viability, Calu-3 [10] [%]	cell viability, HepG2 [8] [%]	cell viability, U2OS [11] [%]	cell viability, Vero E6 [12] [%]	morphology score, [5]
1 nM	–	–	99.9	100	90.6	101	92.1	–
10 nM	–	–	94.2	92.8	99.4	98.2	94.2	–
0.1 µM	96	98	–	–	–	–	–	0.03
100 nM	–	–	101	106	102	98.5	93.6	–
0.3 µM	91	103	–	–	–	–	–	0.11
1 µM	86	98	–	–	–	–	–	0.34
1000 nM	–	–	58.6	117	72.1	7.5	88.1	–
3 µM	64	90	–	–	–	–	–	0.39
10000 nM	–	–	0	1.2	-0.1	0	0	–

drug-induced phospholipidosis [%], A549-ACE2 [6]
Details	0.3 µM	0.833333 µM	3.33333 µM	6.66667 µM
24 h	0.97	-3.21	5.44	2.76
48 h	3.04	-1.45	6.04	–
72 h	2.56	0.634	–	–
